Source: ChEMBL document CHEMBL5120890, “Untapped Pharmaceutical Potential of 4,5,4'-Trihydroxy-3,3'-dimethoxybibenzyl for Regulating Obesity: A Cell-Based Study with a Focus on Terminal Differentiation in Adipogenesis” (J Nat Prod, 2022)
The source made the active and inactive calls.

Tests used:
[1] = tested on: 3T3-L1; experiment: Down regulation of CDK2 protein expression in mouse 3T3-L1 cells at 0.5 to 5 uM after 18 hrs by western blot analysis; format: functional, cell-based; settings: dose 0.5-5 µM
[2] = tested on: 3T3-L1; experiment: Down regulation of CDK4 protein expression in mouse 3T3-L1 cells at 0.5 to 5 uM after 18 hrs by western blot analysis; format: functional, cell-based; settings: dose 0.5-5 µM
[3] = tested on: 3T3-L1; experiment: Upregulation of p27 protein expression in mouse 3T3-L1 cells at 0.5 to 5 uM after 18 hrs by western blot analysis; format: functional, cell-based; settings: dose 0.5-5 µM
[4] = tested on: 3T3-L1; experiment: Upregulation of p21 protein expression in mouse 3T3-L1 cells at 0.5 to 5 uM after 18 hrs by western blot analysis; format: functional, cell-based; settings: dose 0.5-5 µM
[5] = tested on: 3T3-L1; experiment: Upregulation of p18 protein expression in mouse 3T3-L1 cells at 0.5 to 5 uM after 18 hrs by western blot analysis; format: functional, cell-based; settings: dose 0.5-5 µM
[6] = tested on: 3T3-L1; experiment: Down regulation of SREBP1 protein expression in mouse 3T3-L1 cells at 0.5 to 5 uM after 48 hrs by western blot analysis; format: functional, cell-based; settings: dose 0.5-5 µM, DDE = dose-dependent effect
[7] = tested on: 3T3-L1; experiment: Down regulation of PPARG protein expression in mouse 3T3-L1 cells at 0.5 to 5 uM after 48 hrs by western blot analysis; format: functional, cell-based; settings: dose 0.5-5 µM, DDE = dose-dependent effect
[8] = tested on: 3T3-L1; experiment: Down regulation of C/EBpalpha protein expression in mouse 3T3-L1 cells at 0.5 to 5 uM after 48 hrs by western blot analysis; format: functional, cell-based; settings: dose 0.5-5 µM, DDE = dose-dependent effect
[9] = tested on: 3T3-L1; experiment: Down regulation of SREBP1 mRNA expression in mouse 3T3-L1 cells at 0.5 to 5 uM after 48 hrs by RT-qPCR analysis; format: functional, cell-based; settings: dose 0.5-5 µM, DDE = dose-dependent effect
[10] = tested on: 3T3-L1; experiment: Down regulation of PPARG mRNA expression in mouse 3T3-L1 cells at 0.5 to 5 uM after 48 hrs by RT-qPCR analysis; format: functional, cell-based; settings: dose 0.5-5 µM, DDE = dose-dependent effect
[11] = tested on: 3T3-L1; experiment: Down regulation of C/EBpalpha mRNA expression in mouse 3T3-L1 cells at 0.5 to 5 uM after 48 hrs by RT-qPCR analysis; format: functional, cell-based; settings: dose 0.5-5 µM, DDE = dose-dependent effect
[12] = tested on: 3T3-L1; experiment: Down regulation of PLIN1 protein expression in mouse 3T3-L1 cells in early differentiation at 0.5 to 5 uM after 8 days by western blot analysis; format: functional, cell-based; settings: dose 0.5-5 µM, time 8.0 day
[13] = tested on: 3T3-L1; experiment: Down regulation of LPL protein expression in mouse 3T3-L1 cells in early differentiation at 0.5 to 5 uM after 8 days by western blot analysis; format: functional, cell-based; settings: dose 0.5-5 µM, time 8.0 day
[14] = tested on: 3T3-L1; experiment: Down regulation of adiponectin protein expression in mouse 3T3-L1 cells in early differentiation at 0.5 to 5 uM after 8 days by western blot analysis; format: functional, cell-based; settings: dose 0.5-5 µM, time 8.0 day
[15] = tested on: 3T3-L1; experiment: Down regulation of FABP4 protein expression in mouse 3T3-L1 cells in early differentiation at 0.5 to 5 uM after 8 days by western blot analysis; format: functional, cell-based; settings: dose 0.5-5 µM, time 8.0 day
[16] = tested on: 3T3-L1; experiment: Down regulation of FAS protein expression in mouse 3T3-L1 cells in maturation at 0.5 to 5 uM after 10 days by western blot analysis; format: functional, cell-based; settings: dose 0.5-5 µM, time 10.0 day
[17] = tested on: 3T3-L1; experiment: Down regulation of PL1N1 protein expression in mouse 3T3-L1 cells in maturation at 0.5 to 5 uM after 10 days by western blot analysis; format: functional, cell-based; settings: dose 0.5-5 µM, time 10.0 day
[18] = tested on: 3T3-L1; experiment: Down regulation of LPL protein expression in mouse 3T3-L1 cells in maturation at 0.5 to 5 uM after 10 days by western blot analysis; format: functional, cell-based; settings: dose 0.5-5 µM, time 10.0 day
[19] = tested on: 3T3-L1; experiment: Down regulation of adiponectin protein expression in mouse 3T3-L1 cells in maturation at 0.5 to 5 uM after 10 days by western blot analysis; format: functional, cell-based; settings: dose 0.5-5 µM, time 10.0 day
[20] = tested on: 3T3-L1; experiment: Down regulation of FABP4 protein expression in mouse 3T3-L1 cells in maturation at 0.5 to 5 uM after 10 days by western blot analysis; format: functional, cell-based; settings: dose 0.5-5 µM, time 10.0 day
[21] = tested on: 3T3-L1; experiment: Down regulation of FAS mRNA expression in mouse 3T3-L1 cells in early differentiation at 0.5 to 5 uM after 8 days by RT-qPCR analysis; format: functional, cell-based; settings: dose 0.5-5 µM, time 8.0 day
[22] = tested on: 3T3-L1; experiment: Down regulation of PL1N1 mRNA expression in mouse 3T3-L1 cells in early differentiation at 0.5 to 5 uM after 8 days by RT-qPCR analysis; format: functional, cell-based; settings: dose 0.5-5 µM, time 8.0 day
[23] = tested on: 3T3-L1; experiment: Down regulation of LPL mRNA expression in mouse 3T3-L1 cells in early differentiation at 0.5 to 5 uM after 8 days by RT-qPCR analysis; format: functional, cell-based; settings: dose 0.5-5 µM, time 8.0 day
[24] = tested on: 3T3-L1; experiment: Down regulation of adiponectin mRNA expression in mouse 3T3-L1 cells in early differentiation at 0.5 to 5 uM after 8 days by RT-qPCR analysis; format: functional, cell-based; settings: dose 0.5-5 µM, time 8.0 day
[25] = tested on: 3T3-L1; experiment: Down regulation of FABP4 mRNA expression in mouse 3T3-L1 cells in early differentiation at 0.5 to 5 uM after 8 days by RT-qPCR analysis; format: functional, cell-based; settings: dose 0.5-5 µM, time 8.0 day
[26] = tested on: 3T3-L1; experiment: Down regulation of FAS mRNA expression in mouse 3T3-L1 cells in maturation at 0.5 to 5 uM after 10 days by RT-qPCR analysis; format: functional, cell-based; settings: dose 0.5-5 µM, time 10.0 day
[27] = tested on: 3T3-L1; experiment: Down regulation of PL1N1 mRNA expression in mouse 3T3-L1 cells in maturation at 0.5 to 5 uM after 10 days by RT-qPCR analysis; format: functional, cell-based; settings: dose 0.5-5 µM, time 10.0 day
[28] = tested on: 3T3-L1; experiment: Down regulation of LPL mRNA expression in mouse 3T3-L1 cells in maturation at 0.5 to 5 uM after 10 days by RT-qPCR analysis; format: functional, cell-based; settings: dose 0.5-5 µM, time 10.0 day
[29] = tested on: 3T3-L1; experiment: Down regulation of adiponectin mRNA expression in mouse 3T3-L1 cells in maturation at 0.5 to 5 uM after 10 days by RT-qPCR analysis; format: functional, cell-based; settings: dose 0.5-5 µM, time 10.0 day
[30] = tested on: 3T3-L1; experiment: Down regulation of FABP4 mRNA expression in mouse 3T3-L1 cells in maturation at 0.5 to 5 uM after 10 days by RT-qPCR analysis; format: functional, cell-based; settings: dose 0.5-5 µM, time 10.0 day
[31] = biological target: RAC-alpha serine/threonine-protein kinase (Mus musculus) (UniProt P31750); experiment: Inhibition of AKT in mouse 3T3-L1 cells assessed as reduction in AKT phosphorylation in early differentiation at 0.5 to 5 uM after 48 hrs by Western blot analysis; format: cell-based; settings: dose 0.5-5 µM
[32] = tested on: 3T3-L1; experiment: Activation of AMPK-ACC signalling pathway in mouse 3T3-L1 cells assessed as increase in ACC phosphorylation in early differentiation at 0.5 to 5 uM after 48 hrs by Western blot analysis; format: cell-based; settings: filed as activator, dose 0.5-5 µM
[33] = biological target: RAC-alpha serine/threonine-protein kinase (Mus musculus) (UniProt P31750); experiment: Inhibition of AKT in mouse 3T3-L1 cells assessed as reduction in AKT phosphorylation in maturation at 0.5 to 5 uM after 48 hrs by Western blot analysis; format: cell-based; settings: dose 0.5-5 µM
[34] = tested on: 3T3-L1; experiment: Inhibition of AKT/GSK3beta signalling pathway in mouse 3T3-L1 cells assessed as reduction in GSK3beta phosphorylation in maturation at 0.5 to 5 uM after 48 hrs by Western blot analysis; format: cell-based; settings: dose 0.5-5 µM
[35] = biological target: T1, 5'-AMP-activated protein kinase (Mus musculus) (UniProt Q5EG47+Q8BRK8+Q6PAM0+O54950+Q91WG5+Q9R078+Q8BGM7); experiment: Activation of AMPK in mouse 3T3-L1 cells assessed as increase in AMPKalpha phosphorylation in maturation at 0.5 to 5 uM after 48 hrs by Western blot analysis; format: cell-based; settings: filed as activator, dose 0.5-5 µM
[36] = biological target: T1, 5'-AMP-activated protein kinase (Mus musculus); experiment: Activation of AMPK in mouse 3T3-L1 cells assessed as increase in AMPKbeta phosphorylation in maturation at 0.5 to 5 uM after 48 hrs by Western blot analysis; format: cell-based; settings: filed as activator, dose 0.5-5 µM
[37] = tested on: 3T3-L1; experiment: Activation of AMPK-ACC signalling pathway in mouse 3T3-L1 cells assessed as increase in ACC phosphorylation in maturation at 0.5 to 5 uM after 48 hrs by Western blot analysis; format: cell-based; settings: filed as activator, dose 0.5-5 µM

Chain of RAC-alpha serine/threonine-protein kinase (Mus musculus) (P31750 whole entry): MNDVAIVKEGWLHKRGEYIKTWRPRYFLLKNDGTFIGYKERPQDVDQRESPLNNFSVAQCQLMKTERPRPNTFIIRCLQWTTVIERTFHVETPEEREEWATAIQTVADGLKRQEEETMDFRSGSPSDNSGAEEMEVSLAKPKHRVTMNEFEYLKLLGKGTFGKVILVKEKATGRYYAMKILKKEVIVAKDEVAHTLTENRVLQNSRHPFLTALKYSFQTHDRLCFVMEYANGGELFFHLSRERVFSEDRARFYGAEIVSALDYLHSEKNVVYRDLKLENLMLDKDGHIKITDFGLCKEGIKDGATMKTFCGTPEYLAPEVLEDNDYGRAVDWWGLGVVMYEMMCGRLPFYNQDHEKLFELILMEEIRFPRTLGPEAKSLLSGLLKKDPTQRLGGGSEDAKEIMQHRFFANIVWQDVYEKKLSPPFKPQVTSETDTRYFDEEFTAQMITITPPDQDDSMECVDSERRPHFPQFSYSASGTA

COc1cc(CCc2cc(O)c(O)c(OC)c2)ccc1O
active: Activity [1] | Activity [2] | Activity [3] | Activity [4] | Activity [5] | Activity [6] Dde | Activity [7] Dde | Activity [8] Dde | Activity [9] Dde | Activity [10] Dde | Activity [11] Dde | Activity [12] | Activity [13] | Activity [14] | Activity [15] | Activity [16] | Activity [17] | Activity [18] | Activity [19] | Activity [20] | Activity [21] | Activity [22] | Activity [23] | Activity [24] | Activity [25] | Activity [26] | Activity [27] | Activity [28] | Activity [29] | Activity [30] | inhibition [31] | Activity [32] | inhibition [33] | inhibition [34] | Activity [35] | Activity [36] | Activity [37]
